Like-named read-outs stand apart in the source and are kept apart here. One block for each compound: values may come before it.
Assays:
[1] = test system: NO production induced by INF-γ in mouse macrophages; experiment: Inhibition of NO production induced by IFN-γ in mouse macrophages (Griess reaction); assay type: cell-based
Description: The procedure for determining IC50 on NO production induced by INF-γ in mouse macrophages is as follows. Macrophages were harvested from female mice injected intraperitoneally four days previously with 4% thioglycollate. These cells were seeded in 96-well tissue culture plates and incubated with 4 ng/mL INF-γ in the presence or absence of inhibitory test compounds. After 48 hours NO production, measured as […] by the Griess reaction, was determined. This method is described fully by Ding et al. (1990) and Bogdan and Ding, (1992).

[2] = test system: NO production induced by INF-γ in mouse macrophages; settings: previously reported (Honda et al.); read-out: IC50 (level); cited from earlier work
[3] = test system: human tumor cell lines, mouse 3T3-L1 fibroblasts, mouse macrophages; settings: cell culture; previously reported (Suh et al., 1999); cited from earlier work
[4] = target: T1, peroxisome proliferator-activated receptor γ (PPARγ) (Homo sapiens, UniProt P37231); settings: Wang et al., 2000; cited from earlier work
T1 sequence (P37231 1-505): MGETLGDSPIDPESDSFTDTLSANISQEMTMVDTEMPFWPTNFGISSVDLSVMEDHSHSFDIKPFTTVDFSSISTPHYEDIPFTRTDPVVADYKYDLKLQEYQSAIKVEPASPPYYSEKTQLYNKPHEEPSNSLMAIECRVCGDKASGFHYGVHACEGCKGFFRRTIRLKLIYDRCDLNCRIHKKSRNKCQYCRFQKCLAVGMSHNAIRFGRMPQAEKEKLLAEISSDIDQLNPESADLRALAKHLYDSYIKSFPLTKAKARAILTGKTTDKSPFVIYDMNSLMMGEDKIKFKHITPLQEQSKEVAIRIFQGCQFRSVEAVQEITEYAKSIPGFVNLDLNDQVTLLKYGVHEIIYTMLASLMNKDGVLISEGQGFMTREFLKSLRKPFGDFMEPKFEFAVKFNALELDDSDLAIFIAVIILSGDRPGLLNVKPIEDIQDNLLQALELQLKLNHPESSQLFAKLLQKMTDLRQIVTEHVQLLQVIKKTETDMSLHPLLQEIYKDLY

[5] = Mus musculus, Macrophage, 48 h, Table 1; NO production induced by IFN-γ; tested 0.01 pM-1 μM (10-fold dilutions); average of several separate experiments
[6] = Mus musculus, Macrophage; Table 1; NO production induced by IFN-γ, 48 h; tested 0.01 pM-1 μM (10-fold dilutions); average of several separate experiments
[7] = SAR on substituents at C-17, Tables 1-3
[8] = Mus musculus, Macrophage; Table 2; NO production induced by IFN-γ, 48 h; tested 0.01 pM-1 μM (10-fold dilutions); average of several separate experiments

IC50 ([1]; Mus musculus, Macrophage; Table 3; NO production induced by IFN-γ, 48 h; tested 0.01 pM-1 μM (10-fold dilutions); average of several separate experiments): 0.05 nM
Structure (SMILES): CC(=O)OC[C@H]1O[C@@H](OC(=O)[C@]23CCC(C)(C)C[C@H]2[C@H]2C(=O)C=C4[C@@]5(C)C=C(C#N)C(=O)C(C)(C)[C@@H]5CC[C@@]4(C)[C@]2(C)CC3)[C@H](OC(C)=O)C(OC(C)=O)[C@H]1OC(C)=O (stereo partly shown) [Compound 18]

Structure (SMILES): COC(=O)C12CCC(C)(C)CC1C1C(=O)C=C3C4(C)C=C(C(=O)O)C(=O)C(C)(C)C4CCC3(C)C1(C)CC2 (stereo not shown) [methyl 2-carboxy-3,12-dioxooleana-1,9(11)-dien-28-oate]
IC50 [2]: ~0.1 nM

IC50 [1, 5]: > 40000 nM | IC50 ([1]; Mus musculus, Macrophage, 48 h, Table 2; NO production induced by IFN-γ; tested 0.01 pM-1 μM (10-fold dilutions); average of several separate experiments): > 40000 nM
Structure (SMILES): CC1(C)CC[C@]2(C(=O)O)CC[C@]3(C)C(=CC[C@@H]4[C@@]5(C)CC[C@H](O)C(C)(C)[C@@H]5CC[C@]43C)[C@@H]2C1 [Oleanolic acid (OA), Oleanolic acid, reference compound]

Structure (SMILES): COC(=O)[C@]12CCC(C)(C)C[C@H]1[C@H]1C(=O)C=C3[C@@]4(C)C=C(C#N)C(=O)C(C)(C)[C@@H]4CC[C@@]3(C)[C@]1(C)CC2 [CDDO methyl ester]
IC50 [2]: ~0.1 nM

IC50 [1, 6]: 0.0035 nM
Structure (SMILES): CC1(C)CC[C@]2(C#N)CC[C@]3(C)[C@H](C(=O)C=C4[C@@]5(C)C=C(C#N)C(=O)C(C)(C)[C@@H]5CC[C@]43C)[C@@H]2C1 [Compound 1, 2-cyano-3,12-dioxooleana-1,9(11)-dien-28-onitrile]
potency compared with CDDO (SAR statement) [1, 7]: much more potent

IC50 [1, 8]: 0.02 nM
Structure (SMILES): CCCc1nccn1C(=O)[C@]12CCC(C)(C)CC1C1C(=O)C=C3[C@@]4(C)C=C(C#N)C(=O)C(C)(C)[C@@H]4CC[C@@]3(C)[C@]1(C)CC2 (stereo partly shown) [Compound 12]

IC50 [1, 6]: 0.098 nM
Structure (SMILES): CC1(C)CC[C@]2(C(N)=O)CC[C@]3(C)[C@H](C(=O)C=C4[C@@]5(C)C=C(C#N)C(=O)C(C)(C)[C@@H]5CC[C@]43C)[C@@H]2C1 [Compound 3]
potency compared with CDDO (SAR statement) [1, 7]: greater potency than CDDO

Structure (SMILES): Cc1cn(C(=O)[C@]23CCC(C)(C)CC2C2C(=O)C=C4[C@@]5(C)C=C(C#N)C(=O)C(C)(C)[C@@H]5CC[C@@]4(C)[C@]2(C)CC3)cn1 (stereo partly shown) [Compound 10, 1-(2-cyano-3,12-dioxooleana-1,9(11)-dien-28-oyl)-4-methylimidazole]
potency compared with CDDO (SAR statement) [1, 7]: greatest potency

IC50 [1, 5]: 0.44 nM | IC50 ([1]; Mus musculus, Macrophage, 48 h, Table 3; NO production induced by IFN-γ; tested 0.01 pM-1 μM (10-fold dilutions); average of several separate experiments): 0.7 nM
Structure (SMILES): CC1(C)CC[C@]2(C(=O)O)CC[C@]3(C)[C@H](C(=O)C=C4[C@@]5(C)C=C(C#N)C(=O)C(C)(C)[C@@H]5CC[C@]43C)[C@@H]2C1 [CDDO, 2-cyano-3,12-dioxooleana-1,9(11)-dien-28-oic acid]
IC50 [2]: ~0.1 nM | concentrations at which potencies were found [3]: 10^−6 to 10^−9 M | ligand for PPARγ [4]: ligand

IC50 [1, 8]: 0.05 nM
Structure (SMILES): CC1(C)CC[C@]2(C(=O)n3ccnc3-c3ccccc3)CC[C@]3(C)C(C(=O)C=C4[C@@]5(C)C=C(C#N)C(=O)C(C)(C)[C@@H]5CC[C@]43C)C2C1 (stereo partly shown) [Compound 14]

IC50 [1, 6]: 0.07 nM
Structure (SMILES): CC(=O)OC[C@H]1OC(OC(=O)[C@]23CCC(C)(C)CC2C2C(=O)C=C4[C@@]5(C)C=C(C#N)C(=O)C(C)(C)[C@@H]5CC[C@@]4(C)[C@]2(C)CC3)[C@H](OC(C)=O)C(OC(C)=O)[C@@H]1OC(C)=O (stereo partly shown) [Compound 2]

IC50 [1, 8]: 0.1 nM
Structure (SMILES): CCc1nccn1C(=O)[C@]12CCC(C)(C)CC1C1C(=O)C=C3[C@@]4(C)C=C(C#N)C(=O)C(C)(C)[C@@H]4CC[C@@]3(C)[C@]1(C)CC2 (stereo partly shown) [Compound 11]

IC50 [1, 6]: 0.1 nM
Structure (SMILES): C[C@@H]1C[C@H]2[C@@H]3CCC4=CC(=O)C=C[C@]4(C)[C@@]3(F)[C@@H](O)C[C@]2(C)[C@@]1(O)C(=O)CO [Dexamethasone, reference compound]

IC50 [1, 8]: 0.03 nM
Structure (SMILES): CC1(C)CC[C@]2(C(=O)n3cnc(Br)c3)CC[C@]3(C)C(C(=O)C=C4[C@@]5(C)C=C(C#N)C(=O)C(C)(C)[C@@H]5CC[C@]43C)C2C1 (stereo partly shown) [Compound 15]

IC50 [1, 8]: 0.1 nM
Structure (SMILES): Cc1cn(C(=O)[C@]23CCC(C)(C)CC2C2C(=O)C=C4[C@@]5(C)C=C(C#N)C(=O)C(C)(C)[C@@H]5CC[C@@]4(C)[C@]2(C)CC3)c(C)n1 (stereo partly shown) [Compound 13]

— patent publication US6974801B2, “Inhibitors and methods of use thereof” (The Trustees of Dartmounth College, priority 2002, dated 2005)
